Experimental data as given in ChEMBL document CHEMBL1201862, “PubChem BioAssay data set” (2004).
The source made the active and inactive calls.

What was measured:
[1] = P. falciparum Dd2 growth inhibitors, dose response, SYBR Green, cherry-picked samples (AID 1159567); assay type: functional, cell-based
[2] = molecular target: T1, Endoribonuclease toxin MazF (Escherichia coli K-12, UniProt P0AE70); assay: MazF toxin RNase activators, dose response, biochemical, fluorescence, single-stranded RNA substrate, uHTS hits (AID 588481); assay type: functional
T1 sequence (P0AE70 whole entry): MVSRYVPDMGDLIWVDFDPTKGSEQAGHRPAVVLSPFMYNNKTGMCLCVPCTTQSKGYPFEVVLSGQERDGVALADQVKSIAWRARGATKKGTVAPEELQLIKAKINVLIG

[3] = molecular target: T1, Endoribonuclease toxin MazF; assay: fluorescent RNA oligo signal without MazF, dose response, counter-screen for MazEF activator project, biochemical, fluorescence, single-stranded RNase substrate (AID 588502); assay type: functional
[4] = inhibitors of SNCA 5'UTR-driven reporter translation, confirmation, H4 neuroglioma cells, luminescence (AID 1988); assay type: functional, cell-based
[5] = microbe, parasite or virus in culture; assay type: functional; conditions: Mycobacterium tuberculosis
[6] = Luminescence Cell-Based Dose Response HTS to Identify Inhibitors of 5'UTR Stem-Loop Driven Prion Protein mRNA Translation in H4 Neuroglioblastoma Cells. [Related pubchem assays: 1827 (Project Summary), 1813 (Primary HTS)]; assay type: functional
[7] = inhibitors of firefly luciferase expression or activity, dose response, H4 neuroglioma cells, luminescence (AID 1990); assay type: functional, cell-based
[8] = molecular target: Heat shock protein HSP 90-alpha (Homo sapiens, UniProt P07900); assay type: functional, organism-based
Cytochrome P450 3A4 = Cytochrome P450 3A4 (Homo sapiens, UniProt P08684); conditions: Potency;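 also: confirmatory qHTS run detecting inhibitors and substrates of CYP3A4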
Cytochrome P450 3A4, sequence (P08684 whole entry): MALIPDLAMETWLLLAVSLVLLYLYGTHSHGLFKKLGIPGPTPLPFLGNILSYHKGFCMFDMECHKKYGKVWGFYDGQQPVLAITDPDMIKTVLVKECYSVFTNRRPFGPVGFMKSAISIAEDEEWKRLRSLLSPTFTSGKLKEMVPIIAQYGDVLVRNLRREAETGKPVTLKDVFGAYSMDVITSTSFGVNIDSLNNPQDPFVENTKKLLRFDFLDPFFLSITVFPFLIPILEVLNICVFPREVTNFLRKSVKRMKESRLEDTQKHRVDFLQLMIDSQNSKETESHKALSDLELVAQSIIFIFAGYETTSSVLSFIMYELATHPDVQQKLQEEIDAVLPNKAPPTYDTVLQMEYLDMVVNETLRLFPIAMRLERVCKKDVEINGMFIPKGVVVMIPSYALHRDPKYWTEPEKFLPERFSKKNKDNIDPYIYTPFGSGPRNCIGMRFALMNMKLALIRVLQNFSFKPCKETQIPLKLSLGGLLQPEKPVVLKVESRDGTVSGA

[9] = molecular target: T2, Long-chain-fatty-acid--AMP ligase FadD28 (Mycobacterium tuberculosis, UniProt P9WQ59); assay: Fluorescence polarization aasay to screen for inhibitors that compete for the binding of FadD28 to a bisubstrate Measured in Biochemical System Using Plate Reader - 2147-01_Inhibitor_Dose_CherryPick_Activity.; assay type: functional, Mycobacterium tuberculosis H37Rv
T2 sequence (P9WQ59 whole entry): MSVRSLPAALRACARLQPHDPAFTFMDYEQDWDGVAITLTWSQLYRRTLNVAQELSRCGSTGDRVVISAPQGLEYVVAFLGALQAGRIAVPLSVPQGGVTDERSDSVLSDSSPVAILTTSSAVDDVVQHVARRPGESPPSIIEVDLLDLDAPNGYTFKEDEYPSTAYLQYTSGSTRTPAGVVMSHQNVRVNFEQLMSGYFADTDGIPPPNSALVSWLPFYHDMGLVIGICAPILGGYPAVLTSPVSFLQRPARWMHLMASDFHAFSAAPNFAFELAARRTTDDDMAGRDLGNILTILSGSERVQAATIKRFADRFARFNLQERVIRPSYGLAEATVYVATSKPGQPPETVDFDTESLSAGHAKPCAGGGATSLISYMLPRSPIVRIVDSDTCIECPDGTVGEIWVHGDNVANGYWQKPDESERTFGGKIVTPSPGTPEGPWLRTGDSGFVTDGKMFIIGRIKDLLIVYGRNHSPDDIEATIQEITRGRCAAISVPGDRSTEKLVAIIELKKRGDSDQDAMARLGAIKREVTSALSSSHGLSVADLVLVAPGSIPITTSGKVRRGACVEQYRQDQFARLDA

H9c2 = assay: cells; assay type: functional, cell-based; conditions: Rattus norvegicus, H9c2, Myocardium;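 also: confirmatory concentration-response retest of ultra-high-throughput screening hits for modulation of myocardial damage; cell death induced by hydrogen peroxide oxidative stress; compound pretreatment for 60 min then peroxide exposure for 2 h; potency is for protecting the cells against peroxide damage rather than for killing them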
Protein RecA = molecular target: T3, Protein RecA (Mycobacterium tuberculosis, UniProt P9WHJ3); assay: Fluorescence Cell-Free Homogeneous Dose Retest to Identify Inhibitors of RecA-Intein Splicing Activity. [Related pubchem assays (depositor defined):AID2097, AID2223, AID489010, AID492950]; assay type: functional
T3 sequence (P9WHJ3 whole entry): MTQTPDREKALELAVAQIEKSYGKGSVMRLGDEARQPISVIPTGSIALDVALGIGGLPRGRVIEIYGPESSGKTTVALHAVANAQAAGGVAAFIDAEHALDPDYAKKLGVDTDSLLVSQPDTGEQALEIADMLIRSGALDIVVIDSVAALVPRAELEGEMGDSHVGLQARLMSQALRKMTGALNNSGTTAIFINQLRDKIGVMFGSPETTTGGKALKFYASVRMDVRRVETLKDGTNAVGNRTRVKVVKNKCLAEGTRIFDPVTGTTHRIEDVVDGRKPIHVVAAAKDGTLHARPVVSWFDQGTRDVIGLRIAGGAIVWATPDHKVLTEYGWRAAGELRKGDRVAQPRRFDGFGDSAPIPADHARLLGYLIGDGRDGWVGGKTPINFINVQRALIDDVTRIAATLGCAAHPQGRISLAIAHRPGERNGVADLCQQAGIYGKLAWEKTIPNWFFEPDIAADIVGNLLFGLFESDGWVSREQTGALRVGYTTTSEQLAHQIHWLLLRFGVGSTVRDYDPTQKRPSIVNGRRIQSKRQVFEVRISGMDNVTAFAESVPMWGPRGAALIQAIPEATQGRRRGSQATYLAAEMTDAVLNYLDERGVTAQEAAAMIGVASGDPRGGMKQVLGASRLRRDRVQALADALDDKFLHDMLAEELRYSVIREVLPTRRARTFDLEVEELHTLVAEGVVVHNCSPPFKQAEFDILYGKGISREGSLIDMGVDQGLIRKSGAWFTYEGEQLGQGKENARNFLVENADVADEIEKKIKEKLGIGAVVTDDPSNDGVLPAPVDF

[10] = molecular target: T4, Replicative DNA helicase DnaB (Mycobacterium tuberculosis, UniProt P9WMR3); assay: DnaB intein splicing inhibitors, dose response, biochemical, cell-free fluorescence (AID 449749); assay type: functional
T4 sequence (P9WMR3 whole entry): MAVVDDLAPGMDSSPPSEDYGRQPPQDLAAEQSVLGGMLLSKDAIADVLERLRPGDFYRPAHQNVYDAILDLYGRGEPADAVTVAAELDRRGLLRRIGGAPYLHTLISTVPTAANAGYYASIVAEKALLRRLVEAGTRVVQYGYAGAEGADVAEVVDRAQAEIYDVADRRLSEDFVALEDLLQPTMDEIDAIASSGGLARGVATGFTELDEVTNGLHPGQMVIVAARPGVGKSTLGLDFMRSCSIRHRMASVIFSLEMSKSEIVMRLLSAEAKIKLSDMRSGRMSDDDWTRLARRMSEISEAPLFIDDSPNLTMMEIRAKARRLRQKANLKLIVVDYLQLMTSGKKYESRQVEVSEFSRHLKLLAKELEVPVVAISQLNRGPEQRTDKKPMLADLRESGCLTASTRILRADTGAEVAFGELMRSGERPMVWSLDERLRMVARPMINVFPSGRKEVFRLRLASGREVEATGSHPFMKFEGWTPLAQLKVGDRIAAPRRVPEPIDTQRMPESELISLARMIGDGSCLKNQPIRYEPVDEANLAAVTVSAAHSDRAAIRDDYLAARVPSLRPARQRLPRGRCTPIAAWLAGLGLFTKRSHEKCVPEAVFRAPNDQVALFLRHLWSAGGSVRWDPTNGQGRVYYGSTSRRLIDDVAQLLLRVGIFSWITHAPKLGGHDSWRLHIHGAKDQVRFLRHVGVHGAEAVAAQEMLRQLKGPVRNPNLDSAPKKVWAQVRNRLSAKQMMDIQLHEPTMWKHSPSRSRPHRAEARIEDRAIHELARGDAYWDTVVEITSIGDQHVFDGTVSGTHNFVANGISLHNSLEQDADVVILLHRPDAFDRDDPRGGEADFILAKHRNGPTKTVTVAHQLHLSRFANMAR

[11] = cytotoxicity in HEK-293T cells, dose response, cytotoxicity control for TCR NF-kB inhibitor project, luminescence, T-cell screen hits (AID 489026); assay type: functional, cell-based;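 also: cells exposed to compound about 14 hours before the viability readout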
cells [12] = assay type: functional
[13] = THP-1 cell cytotoxicity, dose response, cytotoxicity control for non-replicating M. tuberculosis project (AID 489025); assay type: functional
[14] = cytotoxicity toward NIH3T3 fibroblasts, dose response, counter-screen, cell-based, ATP luminescence, mouse fibroblasts (AID 2010); assay type: functional;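 also: cells exposed to compound for about 90 hours before reading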
[15] = Vero E6 cell cytotoxicity, dose response, cytotoxicity control for non-replicating M. tuberculosis project, secondary assay (AID 492998); assay type: functional, VeroE6; conditions: Vero C1008
[16] = inhibitors of intracellular T. cruzi replication, confirmation, NIH3T3 host cells, beta-gal luminescence (AID 2044); assay type: functional, cell-based;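 also: intracellular parasites grown in NIH/3T3 mouse fibroblasts as host cells; luminescent beta-galactosidase reporter signal from transgenic T. cruzi replicating inside host cells; inhibitors lower the luminescence signal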
cells [17] = assay type: functional, cell-based
cells [18] = assay type: functional, cell-based; remark: listed apart in the source
[19] = molecular target: T5, Polyadenylate-binding protein 1 (Homo sapiens, UniProt P11940); assay: PABP1 MLLE–PAM2 interaction inhibitors, dose response, miRNA deadenylation inhibitor project, biochemical, fluorescence polarization, Cy5-PAM2 peptide, secondary (AID 602260); assay type: functional; conditions: read-out: IC50_Mean
T5 sequence (P11940 whole entry): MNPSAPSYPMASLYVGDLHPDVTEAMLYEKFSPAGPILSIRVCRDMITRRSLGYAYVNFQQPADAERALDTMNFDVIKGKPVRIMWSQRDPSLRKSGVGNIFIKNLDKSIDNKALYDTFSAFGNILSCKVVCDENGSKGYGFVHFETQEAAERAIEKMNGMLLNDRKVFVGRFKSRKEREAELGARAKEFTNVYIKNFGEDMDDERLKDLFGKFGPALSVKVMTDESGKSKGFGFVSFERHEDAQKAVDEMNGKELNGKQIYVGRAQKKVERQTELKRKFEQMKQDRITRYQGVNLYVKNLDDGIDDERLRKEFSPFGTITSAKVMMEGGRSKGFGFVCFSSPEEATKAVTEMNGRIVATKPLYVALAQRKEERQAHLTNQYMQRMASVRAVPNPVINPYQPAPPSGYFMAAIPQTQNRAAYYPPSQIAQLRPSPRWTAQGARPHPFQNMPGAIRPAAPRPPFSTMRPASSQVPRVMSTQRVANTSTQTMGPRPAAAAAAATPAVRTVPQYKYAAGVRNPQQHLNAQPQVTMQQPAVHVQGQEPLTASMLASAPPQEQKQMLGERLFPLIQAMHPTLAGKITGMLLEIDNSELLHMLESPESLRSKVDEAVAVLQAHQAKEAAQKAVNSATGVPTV

[20] = molecular target: T5, Polyadenylate-binding protein 1; assay: PABP1 MLLE–PAM2 binding inhibitor potency, dose response, biochemical, fluorescence polarization, FITC-PAM2 peptide (AID 602259); assay type: functional; conditions: read-out: IC50_Mean

C[C@H](CO)N1C[C@H](C)[C@H](CN(C)Cc2ccc(Oc3ccccc3)cc2)Oc2c(NC(=O)c3nc4ccccc4s3)cccc2C1=O
AC50 [1]: 4.87 µM (active)

Nc1c(C(=O)c2ccc(Cl)cc2)sc2nc3c(cc12)CCC3
EC50 [2]: > 99 µM (inactive) | EC50 [3]: > 99 µM (inactive)

COCC(=O)N1CC2(C1)CN(Cc1cc(F)ccc1F)[C@H](CO)c1[nH]c3cc(OC)ccc3c12
AC50 [1]: 13.6 µM (active)

CC1CN(c2ccc([N+](=O)[O-])c(NCCOc3ccc(Cl)cc3)c2)CC(C)N1 (stereo not given)
EC50 [4]: 9.59 µM (active) | CC50 [5]: 11.7 µM (active) | EC50 [6]: 13.6 µM (active) | EC50 [7]: > 120 µM (not active)

O=c1c(-c2ccccc2)c(-c2ccccc2)oc2cc(O)cc(O)c12
AC50 [8]: 7.78 µM (active)

COc1cc(OC)cc(N2C(=O)CC(N3CCC(C(=O)N4CCCCC4)CC3)C2=O)c1 (stereo not given)
AC50 [8]: 8.16 µM (active)

C=CCOC(=O)C(C(C)=O)C(NC(=O)OC)c1ccco1 (stereo not given)
AC50 (Cytochrome P450 3A4): 5.01 µM (inconclusive)

COc1ccc(NC(=O)CNc2ccccc2N2CCCC2=O)cc1S(=O)(=O)N1CCOCC1
AC50 [9]: 34.1 µM (active)

Cc1cccc(-n2[nH]c(C)c(/C=N/c3ccc4[nH]c(O)nc4c3)c2=O)c1
IC50 (H9c2): > 79 µM (inactive) | EC50 [2]: 36 µM (inactive) | EC50 [3]: 65.2 µM (inactive)

CCOC(=O)CSc1nc2cc(C)ccc2cc1C#N
EC50 [2]: > 99 µM (inactive) | EC50 [3]: 26.8 µM (inactive)

Nc1ncnc2c1ncn2[C@@H]1O[C@H](CNCc2ccc(OCc3ccccc3)cc2)[C@@H](O)[C@H]1O
AC50 [9]: 64.2 µM (active)

COC(=O)c1cccc(C23CC4(C2)[C@H](CN(Cc2ccc(-c5ccccc5)cc2)[C@@H]4c2ccccc2)C3c2ccc(C(F)(F)F)cc2)c1 (stereo not given in full)
AC50 (Cytochrome P450 3A4): 20 µM (inconclusive)

Cc1sc(NC(=O)COc2cccc(-n3cnnn3)c2)c(C#N)c1C
EC50 [2]: > 99 µM (inactive) | EC50 [3]: > 99 µM (inactive)

Cc1[nH]n(-c2ccccc2)c(=O)c1C(C[N+](=O)[O-])c1ccccc1Cl (stereo not given)
EC50 (Protein RecA): 5.48 µM (active) | AC50 [10]: 6.69 µM (active) | CC50 [5]: > 40 µM (active)

CCCCC(CC)COP(=O)(OCC(CC)CCCC)OCC(CC)CCCC (stereo not given)
AC50 (Cytochrome P450 3A4): 15.8 µM (inconclusive)

COc1cc(C2c3cc4c(cc3CC3COC(=O)C32)OCO4)cc(OC)c1OC (stereo not given)
IC50 [11]: > 80 µM (inactive)

COC(=O)[C@@H]1C[C@@H]2CC[C@@H](O)C[C@@H]2N1Cc1ccc(C)s1
AC50 (Cytochrome P450 3A4): 25.1 µM (inconclusive)

Cc1cccc(NC(=O)c2ccc([N+](=O)[O-])s2)n1
IC50 (cells [12]): 11.8 µM (active) | CC50 [13]: 29.9 µM (active) | EC50 [14]: > 60 µM (not active) | CC50 [15]: 19.1 µM (active) | EC50 [16]: 0.325 µM (active)

COC(=O)c1c(C)c2c(c(C)c1O)OC(=O)c1c(C)c(Cl)c(O)c(Cl)c1O2 [LEOIDIN]
AC50 (Cytochrome P450 3A4): 2.51 µM (inconclusive)

COc1cccc(NC(=O)CN(C)C(=O)c2cc3c(s2)CCCCC3)c1
AC50 [9]: 84 µM (active)

Cc1cc(C)nc(Sc2ncnc(N)c2[N+](=O)[O-])n1
EC50 (cells [17]): > 350 µM (not active) | IC50 (cells [12]): 11.7 µM (active) | CC50 [13]: 23.8 µM (active) | EC50 (cells [18]): > 350 µM (not active) | CC50 [15]: 17.8 µM (active) | CC50 [5]: 26.3 µM (active)

Cc1ccc2c(c1)C(=O)C(=O)N2Cc1ccc(C(F)(F)F)cc1
AC50 [8]: 7.94 µM (active)

COc1ccc2nc3cc(Cl)ccc3c(C#N)c2c1
IC50 [19]: > 66 µM (inactive) | EC50 [2]: > 99 µM (inactive) | IC50 [20]: > 66 µM (inactive) | EC50 [3]: > 99 µM (inactive)
